This is an account of results in article PMC11182235 (Frontiers in Ophthalmology, 2023).

Entries after “also recorded” stand apart in the source; their conditions may differ. Like-named read-outs stand apart in the source and are kept apart here.

One data set relates to adult porcine RGCs. The following applies: cited from earlier work.
A further data set concerns isolated rat RGCs. The following applies: cited from earlier work.
Data set [1] concerns isolated retinal ganglion cells. It counts as cell-based, porcine.
For data set [2] the test system is unchanged. The following applies: cited from earlier work.
In a further data set the test system is RGC. The following applies: in vivo; cited from earlier work.
The next data set deals with α7 nAChR (Sus scrofa, UniProt F1SNR6). Briefly: biochemical. The format is binding, porcine.
Chain of α7 nAChR (F1SNR6 20-499 limits assumed): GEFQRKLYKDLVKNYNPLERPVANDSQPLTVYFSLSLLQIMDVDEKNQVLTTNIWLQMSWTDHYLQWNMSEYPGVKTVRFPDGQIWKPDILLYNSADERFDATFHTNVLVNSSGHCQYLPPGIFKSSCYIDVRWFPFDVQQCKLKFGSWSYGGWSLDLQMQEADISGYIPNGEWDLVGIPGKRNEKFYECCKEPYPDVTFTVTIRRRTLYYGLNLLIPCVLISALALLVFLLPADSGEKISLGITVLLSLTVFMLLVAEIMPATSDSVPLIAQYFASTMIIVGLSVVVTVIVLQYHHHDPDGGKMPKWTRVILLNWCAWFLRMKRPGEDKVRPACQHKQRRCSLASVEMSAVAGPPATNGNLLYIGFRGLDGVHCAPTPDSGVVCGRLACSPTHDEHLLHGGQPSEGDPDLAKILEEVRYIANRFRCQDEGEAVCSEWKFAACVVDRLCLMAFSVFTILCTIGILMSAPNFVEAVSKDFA
A further data set addresses α4 nAChR (Sus scrofa, UniProt A0A286ZKF4+A0A287BFD8). The format is binding, porcine. The settings on record: for Ki: read-out: Mean Ki against [3H]-cytisine.
The next data set has as its target α3 nAChR (Sus scrofa, UniProt A0A287A7Z4). The format is binding, porcine. The settings on record: read-out: Mean Ki against [3H]-epibatidine.
In the next data set the test system is retinal ganglion cells. It counts as cell-based, rat.
For a further data set, the target named is α4β2 nicotinic receptors. The following applies: cited from earlier work.
The target in a further data set is α7 nicotinic receptors. The settings on record: cited from earlier work.
The next data set has as its system α7 nAChRs. The settings on record: cited from earlier work.
The target of a further data set is α3β4 receptors. The settings on record: cited from earlier work.
Where [3] appears, read: rat retinal slice, RGCs, fluo-4 fluorescence, n = 4.

Chain of α4 nAChR (A0A286ZKF4 31-595 limits assumed): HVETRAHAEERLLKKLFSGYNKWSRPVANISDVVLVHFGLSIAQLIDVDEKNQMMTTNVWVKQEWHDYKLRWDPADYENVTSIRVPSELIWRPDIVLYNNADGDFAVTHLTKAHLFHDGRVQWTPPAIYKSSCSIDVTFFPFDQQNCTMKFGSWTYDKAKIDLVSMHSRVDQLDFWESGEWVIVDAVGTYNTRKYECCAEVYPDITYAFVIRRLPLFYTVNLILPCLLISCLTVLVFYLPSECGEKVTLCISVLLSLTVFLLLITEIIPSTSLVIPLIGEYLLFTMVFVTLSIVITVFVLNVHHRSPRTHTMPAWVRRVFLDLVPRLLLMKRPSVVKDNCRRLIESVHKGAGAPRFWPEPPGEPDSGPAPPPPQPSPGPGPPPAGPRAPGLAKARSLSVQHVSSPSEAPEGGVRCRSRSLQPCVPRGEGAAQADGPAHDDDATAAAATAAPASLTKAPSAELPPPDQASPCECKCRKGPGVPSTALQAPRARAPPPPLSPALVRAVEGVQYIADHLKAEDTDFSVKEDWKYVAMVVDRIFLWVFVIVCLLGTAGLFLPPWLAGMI
Chain of α4 nAChR (A0A287BFD8 26-502 limits assumed): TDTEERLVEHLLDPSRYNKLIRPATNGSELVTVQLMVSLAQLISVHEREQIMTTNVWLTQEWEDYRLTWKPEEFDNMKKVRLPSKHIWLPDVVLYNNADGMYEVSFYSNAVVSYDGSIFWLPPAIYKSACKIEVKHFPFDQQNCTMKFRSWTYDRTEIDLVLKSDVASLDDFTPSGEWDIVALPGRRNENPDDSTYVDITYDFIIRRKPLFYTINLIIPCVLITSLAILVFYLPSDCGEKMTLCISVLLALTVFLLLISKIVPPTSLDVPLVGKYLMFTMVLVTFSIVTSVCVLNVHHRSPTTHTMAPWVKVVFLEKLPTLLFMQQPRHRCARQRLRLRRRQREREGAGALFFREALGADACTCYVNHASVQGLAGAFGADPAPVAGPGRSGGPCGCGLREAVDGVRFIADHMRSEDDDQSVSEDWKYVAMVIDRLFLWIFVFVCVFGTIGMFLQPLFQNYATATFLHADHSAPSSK
Chain of α3 nAChR (A0A287A7Z4 30-503 limits assumed): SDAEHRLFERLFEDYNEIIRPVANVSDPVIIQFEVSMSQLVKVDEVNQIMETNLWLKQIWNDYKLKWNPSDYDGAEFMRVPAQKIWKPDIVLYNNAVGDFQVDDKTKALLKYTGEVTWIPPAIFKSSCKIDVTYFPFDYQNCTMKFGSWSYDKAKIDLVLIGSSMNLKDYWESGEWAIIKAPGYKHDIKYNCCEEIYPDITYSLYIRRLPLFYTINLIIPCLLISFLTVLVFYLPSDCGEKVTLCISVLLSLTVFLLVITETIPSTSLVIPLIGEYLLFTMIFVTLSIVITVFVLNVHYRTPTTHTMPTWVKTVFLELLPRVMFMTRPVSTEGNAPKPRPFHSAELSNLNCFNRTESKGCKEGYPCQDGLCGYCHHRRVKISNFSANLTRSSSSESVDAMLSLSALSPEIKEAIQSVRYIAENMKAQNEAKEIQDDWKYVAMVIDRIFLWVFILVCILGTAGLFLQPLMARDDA

In the case of `CC(=O)OCC[N+](C)(C)C` [ACh, acetylcholine], the “Reduction of glutamate-induced excitotoxicity” value (from here on “Reduction”) in the data set on adult porcine RGCs was “significantly reduced”.

Consider `CCN1C[C@]2(COC(=O)c3ccccc3N3C(=O)C[C@H](C)C3=O)CC[C@H](OC)[C@@]34[C@@H]5C[C@H]6[C@H](OC)[C@@H]5[C@](O)(C[C@@H]6OC)[C@@](O)([C@@H](OC)[C@H]23)[C@@H]14` [MLA, Methyllycaconitine], for which the “Block of neuroprotective effect of 100 nM PNU-282987 against glutamate-induced toxicity” value with isolated rat RGCs was “blocked; also recorded: inhibited the protective effects”.

As for `O=C(N[C@H]1CN2CCC1CC2)c1ccc(Cl)cc1` [PNU-282987], the “Neuroprotection against glutamate-induced excitotoxicity” value in data set [1] is given as “effective in the low-to-mid nanomolar concentration range”. Also, the “Cell numbers in porcine retinal cell culture relative to control” value in data set [2] is recorded as “increased numbers of cells”. In addition, the “Cell numbers in isolated rat RGC culture relative to control” value with isolated rat RGCs is given as “increased numbers of cells”. Further, the “RGC cell numbers in the intact rat” value in the data set on RGC was “increase in RGC cell numbers”.

Consider `C[N+](C)(C)CCO` [choline], for which the “Reduction” value with adult porcine RGCs is “significantly reduced”.

For the compound `Clc1ccc(C2CC3CCC2N3)cn1` (centres unmarked) [epibatidine], the inhibition at 100 µM on α7 nAChR (read-out: Percent inhibition of [125I]-α-BTX binding) was determined as 3%. In addition, the Ki on α4 nAChR is 0.1 ± 0.03 nM; on α3 nAChR, 0.7 ± 0.05 nM; on α4β2 nicotinic receptors, 0.02 nM; at α7 nicotinic receptors, 233 nM. In addition, the “Threshold dose, calcium response” value with retinal ganglion cells was 1 nM.

Regarding `CN1CCC[C@H]1c1cccnc1` [nicotine], the Ki on α7 nAChR was determined as 300000 ± 22000 nM; at α4 nAChR, 20 ± 0.7 nM; at α3 nAChR, 220 ± 0.6 nM. Also, in the data set on retinal ganglion cells (setting [3]), the “Saturating dose, calcium response” value turned out to be 20 µM. The “Threshold dose, calcium response” value with retinal ganglion cells (setting [3]) is 2000 nM. The “Protection against glutamate-induced excitotoxicity at higher levels” value in [1] (additional preliminary and published experiments ([47])) is reported as “drop-off in protection at higher levels”. Also, the “Concentration at which toxicity reported” value with adult porcine RGCs was 50 µM. Moreover, the “Reduction” value in the data set with adult porcine RGCs was “significantly reduced”.

In the case of α-Bungarotoxin [α-BTX], the inhibitory constant (Ki) on α7 nAChR (read-out: Mean Ki against [125I]-α-BTX) stood at 170 ± 40 nM. Moreover, at α4 nAChR (0.1 µM), the “Percent inhibition of [3H]-cytisine binding” value is recorded as 3% ± 3. In addition, the “Effect of antagonist on neuroprotection by PNU-282987” value in [1] was “reduction in the neuroprotective effects”. Besides, the IC50 in the data set on α7 nAChRs was 1.6 nM; at α3β4 receptors, > 3000 nM.
